Measured values as given in patent US8334403B1, “C-lysine conjugates as pH-controlled, light-activated reagents for double stranded DNA cleavage and associated methods” (Florida State University Research Foundation, Inc., priority 2005, dated 2012).

Columns and labels:
[1] = system: three human clear cell renal cell carcinoma (RCC) cell lines (UMRC3, UMRC6, 786-O); assay: RCC cell proliferation assay, three cell lines together; assay type: cell-based; conditions: 10 μM
Experimental: FIG. 23 provides the results of cell proliferation assays using three different RCC cell lines: (a) UMRC3, (b) UMRC6 and (c) 786-O, and compounds I-5; RCC cells were resuspended in media and treated with UV radiation (350 nm) for 10 minutes with and without indicated compounds; control cells were exposed to the indicated compound 1-5 at final concentration of 10 μM; cell numbers determined after 72 hours as described in the SI Section;
The ability of compounds 1-5 to inhibit cell proliferation in three human clear cell renal cell carcinoma (RCC) cell lines was tested in the dark and under photoactivation (FIG. 23). No difference was detected in the control experiments between cells not exposed to UV versus those that were exposed to UV at 350 nm for 10 minutes in any of the three RCC cell lines tested (FIG. 23 A, B & C; first two columns).

calf thymus (CT) DNA = assay: UV-Vis absorbance titration with DNA; assay type: binding; conditions: 20 mM phosphate buffer
Experimental: General information. ^1H, ^13C and ^19F NMR were collected on a Varian Gemini 300 MHz NMR spectrometer and a Bruker 300 MHz NMR spectrometer. Mass spectrometry data was collected on a Jeol JMS-600H. UV spectra were recorded on a Shimadzu UV-2100. Fluorescence spectra were obtained with SPEX FluoMax spectrofluorimeter using right-angle geometry. pH was adjusted with AB 15 plus pH meter (Accument) after standardization at 25° C. All buffers were prepared and pH-adjusted at room temperature (25° C.). Plasmid DNA Photocleavage. pBR322 plasmid DNA (4,361 b/p; from BioLabs Inc., 1 μg/μL solution in 10 mM Tris-HCl (pH 8.0), and 1 mM EDTA buffer) was diluted to a concentration of 0.01 μg/μL. The solution containing cleavage agent, DNA (30 μM/bp) in 20 mM sodium phosphate buffer was incubated for 1 hour at 30° C. Samples were placed on ice at a distance of 20 cm from 200 W Hg—Xe lamp (Spectra-Physics, Laser & Photonics Oriel Instruments with long pass filter with 324 nm cut-off wavelength). Electrophoretic Analysis. The gel electrophoresis was carried out in 1×TBE buffer at 80 V using Miligel FisherBiotech Horizontal Electrophoresis System. All gels were run on 1% agarose slab gels. Before loading, the DNA samples were mixed with 0.33 volume of tracking dye containing bromophenol blue (0.25%) and glycerol (30%) in water. After staining in ethidium bromide solution (2 μg/ml) for 1 hour, the gel was washed with water and pictures were taken with Polaroid 3000ISO type 667 film. The relative quantities of the supercoiled, nicked, and linear DNA were calculated by integrating the “area” of each spot by the image analyzer software Total/Lab (Nonlinear Dynamics Ltd., UK). […] Absorbance and fluorescence titration with DNA. The concentrations of calf thymus DNA stock solution was determined spectophotometrically using the following molar absorptovity values: 1.32×10^4 M^−1 cm^−1 (per base pair) at 260 nm. […]

[2] = system: LNCap human prostate adenocarcinoma cells; assay: LNCap cell proliferation assay; assay type: cell-based
pBR322 plasmid DNA = assay: Plasmid relaxation assay: DNA photocleavage of supercoiled plasmid under UV irradiation; assay type: biochemical
Experimental: General information. ^1H, ^13C and ^19F NMR were collected on a Varian Gemini 300 MHz NMR spectrometer and a Bruker 300 MHz NMR spectrometer. Mass spectrometry data was collected on a Jeol JMS-600H. UV spectra were recorded on a Shimadzu UV-2100. Fluorescence spectra were obtained with SPEX FluoMax spectrofluorimeter using right-angle geometry. pH was adjusted with AB 15 plus pH meter (Accument) after standardization at 25° C. All buffers were prepared and pH-adjusted at room temperature (25° C.). Plasmid DNA Photocleavage. pBR322 plasmid DNA (4,361 b/p; from BioLabs Inc., 1 μg/μL solution in 10 mM Tris-HCl (pH 8.0), and 1 mM EDTA buffer) was diluted to a concentration of 0.01 μg/μL. The solution containing cleavage agent, DNA (30 μM/bp) in 20 mM sodium phosphate buffer was incubated for 1 hour at 30° C. Samples were placed on ice at a distance of 20 cm from 200 W Hg—Xe lamp (Spectra-Physics, Laser & Photonics Oriel Instruments with long pass filter with 324 nm cut-off wavelength). Electrophoretic Analysis. The gel electrophoresis was carried out in 1×TBE buffer at 80 V using Miligel FisherBiotech Horizontal Electrophoresis System. All gels were run on 1% agarose slab gels. Before loading, the DNA samples were mixed with 0.33 volume of tracking dye containing bromophenol blue (0.25%) and glycerol (30%) in water. After staining in ethidium bromide solution (2 μg/ml) for 1 hour, the gel was washed with water and pictures were taken with Polaroid 3000ISO type 667 film. The relative quantities of the supercoiled, nicked, and linear DNA were calculated by integrating the “area” of each spot by the image analyzer software Total/Lab (Nonlinear Dynamics Ltd., UK). The amount of supercoiled DNA was multiplied by factor of 1.4 to account for reduced ethidium bromide intercalation into supercoiled DNA. pH titration by ^1H-NMR. pH* of compound 8 (3 mM) solution in D2O containing 0.05 wt % 3-(trimethylsilyl)propionic-2,2,3,3-d4 acid, sodium salt (TSP-d4) was adjusted with 10 wt % DCI and NaOD in D2O at 25° C. under argon purged condition. Spectrometric determinations of pKa. pH of 10 μM of compound solution in H2O was adjusted with 10, 100 mM HCl (aq) and NaOH (aq) solution under argon purged condition. Excitation wavelength was 330 nm and polymethacrylate fluorimeter cuvettes were used. Absorbance and fluorescence titration with DNA. The concentrations of calf thymus DNA stock solution was determined spectophotometrically using the following molar absorptovity values: 1.32×10^4 M^−1 cm^−1 (per base pair) at 260 nm. All experiments were done in 20 mM sodium phosphate buffer at 25° C. and polymethacrylate fluorimeter cuvettes were used. The same amount of DNA was added to both sample and reference cuvettes during UV/Vis titration. Determination of excited state lifetimes. The concentration of compound solution was 10 μM in 20 mM sodium phosphate buffer. The photoluminescence lifetime measurements were conducted by exciting the samples with the output of a Nd:VO—4 (Spectra-Physics Vanguard, 2 W, 532 nm, 76 MHz, 10 ps) pumped R6G dye laser (Coherent 702-1). The output of the dye laser (600 nm, Rhodamine 6G) was cavity dumped at 1.9 MHz and frequency doubled using a BBO crystal to excite the fluorophore (the excitation wavelength used was 290 nm). Samples were excited with <1 mW power and the emission was collected at right angles onto a Chromex S3 500 is 0.5 m imaging monochromator with a 50 g/mm grating and 0.5 nm resolution. Output of the monochromator is focused into a Hamamatsu C5680 streak camera operating at a 20 ns window for the fluorophore. Intensity analysis was carried out by integrating the spectral profile in time on the streak camera. Lifetime analysis over 6-7 lifetimes of the fluorophore was conducted by binning the photoluminescence intensity collected on the streak camera over a 20 nm spectral window at the centroid value of the emission of the fluorophore. Ethidium bromide displacement. […]

Cl.Cl.NCCCC[C@H](N)C(=O)Nc1ccc(C#Cc2c(F)c(F)nc(F)c2F)cc1 [Compound 4, (S)-2,6-Diamino-hexanoic acid [4-(2,3,5,6-tetrafluoro-pyridin-4-ylethynyl)-phenyl]-amide dihydrochloride]
cytotoxicity in the dark [1]: considerably less cytotoxic in the dark
hypochromicity on titration with DNA (calf thymus (CT) DNA; pH 5.5, 10 μM): 20%
hypochromicity on titration with DNA (calf thymus (CT) DNA; pH 7, 10 μM): 14%
hypochromicity on titration with DNA (calf thymus (CT) DNA; pH 8, 10 μM): 12%
LNCap cells destroyed ([2]; 10 nM, UV 10 minutes, counted after 48 h): more than 90%
toxicity without light ([2]; no UV): almost no toxicity
ds cleavage (pBR322 plasmid DNA; higher concentrations of 4): ≤ 50%
decrease of total DNA cleavage activity on increasing phosphate buffer from 10 mM to 50 mM (pBR322 plasmid DNA; pH 5.5, 10 μM): 48%
irradiation time until plasmid DNA is completely consumed (pBR322 plasmid DNA; pH 6, 10 μM): ≤ 5 min
protection of DNA from damage by hydroxyl radical/singlet oxygen scavengers (pBR322 plasmid DNA; pH 6, 10 mM scavenger, 5 min irradiation): neither of the additives is able to protect DNA
intact DNA (Form I) remained (pBR322 plasmid DNA; pH 6, 3 minutes of irradiation, 15 μM, 30 μM/bp DNA): 16%
decrease of total DNA cleavage activity on increasing phosphate buffer from 10 mM to 50 mM (pBR322 plasmid DNA; pH 7, 10 μM): 40%
unreacted DNA (Form I) (pBR322 plasmid DNA; pH 7, 3 minutes of irradiation, 15 μM, 30 μM/bp DNA): 60%
